Laboratory results as given in patent US9234231B2, “Screening tool for anti-inflammatory drug discovery comprising the FPR2/ALX gene promoter” (Università degli Studi “G. D'Annunzio” Chieti-Pescara, priority 2011, dated 2016).

Assays:
Type in all cases: cell-based, human
FPR2/ALX promoter = test: Luciferase reporter gene assay of FPR2/ALX promoter constructs P-1500 and P-346 in MDA-MB231 cells; details: MDA-MB231 cells transfected 24 h, then exposed 24 h; LXA4 10 nM, dexametasone 1 μM, IFN-γ 5-100 nM, LPS 500 nM; vs vehicle
Method: Left panel. MDA-MB231 cells were transfected with P-1500 or P-346. Twenty four hours post-transfection, cells were exposed to ethanol vehicle or 10 nM LXA4 for additional 24 h. Bars depict mean±S.D. of n=4 carried out with duplicates. *, P=0.018; **, P=0.0076 vs vehicle-treated cells. Right panel. MDA-MB231 cells were exposed to LXA4 (10 nM) for the indicated time. FPR2/ALX mRNA was quantitated by real-time PCR. Bars show mean±S.D. of n=3. *, P=0.05.
Having localized the TSS, a 1500 bp fragment of human genomic DNA (−1449/+51 from the TSS) was amplified by PCR, cloned into the promoterless pGL3 vector containing the luciferase reporter gene. For this purpose, Genomic DNA was extracted from the THP1 cells using the Wizard Genomic DNA Purification Kit (Promega, Milan, Italy). Two primers, (For 1500 bp e Rev 1500 bp, Table 1) were designed on the basis of genomic DNA sequence of 5′-flanking region of the FPR2/ALX gene to amplify a section of DNA starting −1449 bp upstream of the identified transcription start site (+1). In addition to the template (100 ng of genomic DNA) and primers For 1500 bp and Rev 1500 bp (100 ng), the reaction mixture contained 0.2 mM dNTPs, Pfu DNA polymerase buffer and 0.05 units of Jumpstart Taq DNA polymerase (Sigma-Aldrich), PCR consisted of 35 cycles of amplification (30 seconds at 94° C., 30 s at 52° C., and 120 seconds at 72° C.). PCR products were recovered from low melting agarose gel and used as template in PCR reactions using primers For 1500 and Rev 1500, added of Kpn I and Xho I restriction sites, respectively (Table 1). PCR products were resolved by 1.5% agarose gel elecrophoresis, purified and ligated into the pGL3-basic reporter vector, which was previously digested with Kpn I and Xho I restriction endonuclease. […] The promoter activity of the construct was analyzed by transfection into MCF7 and MDA-MB231 cells. […] A slightly higher activity was detected in MDA-MB231 cells (18 fold over empty vector) compared to MCF7 cells (14 fold over empty vector). […]

FPR2/ALX mRNA = FPR2/ALX mRNA expression by real time PCR in MDA-MB231 cells
FPR2/ALX protein = FPR2/ALX protein expression by flow cytometry in MDA-MB231 cells; details: 10 μM 5-aza-dC, 72 h, Δ MFI vs untreated cells

Molecule	luciferase activity of P-1500 and P-346 (FPR2/ALX promoter)	FPR2/ALX mRNA levels (FPR2/ALX mRNA; MDA-MB231 cells exposed to LXA4 10 nM, real-time PCR)	increase in FPR2/ALX mRNA expression (FPR2/ALX mRNA; MDA-MB231 cells, 10 μM 5-aza-dC, 72 h, vs untreated cells)	increase in FPR2/ALX protein expression (FPR2/ALX protein)
CCCCCC(O)/C=C/C=C\C=C\C=C\C(O)C(O)CCCC(=O)O (stereo not drawn) [LXA4, 5,6,155-trihydroxy-7,9,11,13-trans-1′-cis-eicosatetraenoic acid]	significantly enhanced	enhanced	–	–
Nc1ncn([C@H]2C[C@H](O)[C@@H](CO)O2)c(=O)n1 [5-aza-dC, 5-aza-2′-deoxycytidine]	–	–	~10 fold	~3 fold
IFN-γ: gamma interferon, cytokine	did not give appreciable changes	–	–	–
C[C@@H]1C[C@H]2[C@@H]3CCC4=CC(=O)C=C[C@]4(C)[C@@]3(F)[C@@H](O)C[C@]2(C)[C@@]1(O)C(=O)CO [dexametasone]	did not give appreciable changes	–	–	–
